Data as given in patent US20200291018A1, “TAM KINASE INHIBITORS” (SYROS PHARMACEUTICALS, INC., priority 2017, published 2020).
pIC50: −log10 of the molar value.

Legend:
AXL = target: T1, AXL (Homo sapiens, UniProt P30530); experiment: TR-FRET kinase activity assay, AXL; format: biochemical; conditions: ATP at Km, 60 minutes
T1 sequence (P30530 26-894): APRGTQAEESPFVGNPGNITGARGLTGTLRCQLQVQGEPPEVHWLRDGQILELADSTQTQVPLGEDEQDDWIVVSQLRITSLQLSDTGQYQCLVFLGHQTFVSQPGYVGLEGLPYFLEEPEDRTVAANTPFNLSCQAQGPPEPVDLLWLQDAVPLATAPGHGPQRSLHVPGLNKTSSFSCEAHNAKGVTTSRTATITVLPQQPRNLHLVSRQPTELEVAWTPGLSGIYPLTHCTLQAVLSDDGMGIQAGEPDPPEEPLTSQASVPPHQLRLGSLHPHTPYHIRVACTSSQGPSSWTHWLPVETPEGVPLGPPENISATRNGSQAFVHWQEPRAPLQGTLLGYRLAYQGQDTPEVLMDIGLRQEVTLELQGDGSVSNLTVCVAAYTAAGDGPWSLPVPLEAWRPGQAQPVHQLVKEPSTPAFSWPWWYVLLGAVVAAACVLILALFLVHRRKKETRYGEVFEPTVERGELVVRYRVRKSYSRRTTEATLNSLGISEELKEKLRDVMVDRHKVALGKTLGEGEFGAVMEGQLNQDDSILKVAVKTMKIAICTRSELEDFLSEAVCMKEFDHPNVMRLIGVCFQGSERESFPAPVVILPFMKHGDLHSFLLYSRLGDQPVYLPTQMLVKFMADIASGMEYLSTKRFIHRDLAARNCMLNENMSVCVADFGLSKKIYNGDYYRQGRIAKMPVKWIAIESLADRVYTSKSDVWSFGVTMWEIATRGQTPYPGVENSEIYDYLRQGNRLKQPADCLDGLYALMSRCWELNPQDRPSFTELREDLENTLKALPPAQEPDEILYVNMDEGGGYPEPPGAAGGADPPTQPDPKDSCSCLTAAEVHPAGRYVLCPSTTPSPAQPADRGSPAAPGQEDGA
How it was run: (§1)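 Buffer 50 mM HEPES pH 7.5/10 mM MgCl2/1 mM EGTA/0.01% Brij 35/1 mM DTT, RT. Km ATP per kinase, labeled peptide, 60 min; 12.5 mM EDTA stop; Eu-Ab 30 min dark; TR-FRET → IC50.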

FLT3 = target: T2, FLT3 (Homo sapiens, UniProt P36888); experiment: TR-FRET kinase activity assay, FLT3; format: biochemical; conditions: ATP at Km, 60 minutes
T2 sequence (P36888 27-993): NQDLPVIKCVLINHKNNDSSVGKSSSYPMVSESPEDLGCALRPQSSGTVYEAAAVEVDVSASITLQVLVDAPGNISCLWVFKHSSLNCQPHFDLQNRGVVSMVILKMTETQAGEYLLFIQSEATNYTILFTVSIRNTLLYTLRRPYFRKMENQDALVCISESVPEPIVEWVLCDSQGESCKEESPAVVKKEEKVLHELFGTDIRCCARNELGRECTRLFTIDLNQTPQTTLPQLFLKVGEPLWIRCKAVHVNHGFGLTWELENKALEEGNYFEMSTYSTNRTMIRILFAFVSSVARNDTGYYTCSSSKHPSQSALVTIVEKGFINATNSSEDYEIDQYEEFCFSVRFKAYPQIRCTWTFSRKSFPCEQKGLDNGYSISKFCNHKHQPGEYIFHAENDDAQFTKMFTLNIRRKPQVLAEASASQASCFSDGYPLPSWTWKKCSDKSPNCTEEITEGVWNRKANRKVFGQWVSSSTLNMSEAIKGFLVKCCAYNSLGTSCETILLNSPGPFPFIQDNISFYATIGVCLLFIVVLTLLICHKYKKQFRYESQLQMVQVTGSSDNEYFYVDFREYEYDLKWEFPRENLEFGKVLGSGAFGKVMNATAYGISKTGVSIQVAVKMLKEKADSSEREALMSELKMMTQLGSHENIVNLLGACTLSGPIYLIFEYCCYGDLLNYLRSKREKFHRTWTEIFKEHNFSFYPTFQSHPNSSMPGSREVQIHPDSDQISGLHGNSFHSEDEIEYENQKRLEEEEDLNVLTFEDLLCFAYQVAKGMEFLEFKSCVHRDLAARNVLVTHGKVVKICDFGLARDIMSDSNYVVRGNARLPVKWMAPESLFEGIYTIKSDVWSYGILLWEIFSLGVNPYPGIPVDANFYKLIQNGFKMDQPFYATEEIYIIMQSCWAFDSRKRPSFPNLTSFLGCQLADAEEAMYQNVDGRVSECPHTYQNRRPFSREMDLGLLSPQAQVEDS
How it was run: as §1

Compound	pIC50 (AXL)	pIC50 (FLT3)
COC[C@H](C)Nc1ncc2c(OC3CCOCC3)ncc([C@H]3CC[C@H](NS(C)(=O)=O)CC3)c2n1 [Compound 316]	5.00 to 6.00	5.00 to 6.00
CNS(=O)(=O)N[C@H]1CC[C@H](c2cnc(OC3CCOCC3)c3cnc(N[C@@H](C)COC)nc32)CC1 [Compound 317]	5.00 to 6.00	< 5.00
CC(C)Nc1ncc2c(OC3CCOCC3)ncc(-c3cccc(S(=O)(=O)C(C)C)c3)c2n1 [Compound 318]	6.00 to 7.00	5.00 to 6.00
COC[C@H](C)Nc1ncc2c(OC3CCOCC3)ncc(-c3ccc(CC#N)cc3)c2n1 [Compound 319]	6.00 to 7.00	5.00 to 6.00
COC[C@H](C)Nc1ncc2c(OC3CCOCC3)ncc(-c3cccc(C#N)c3)c2n1 [Compound 320]	5.00 to 6.00	5.00 to 6.00
CC[C@H](C)Nc1ncc2c(O[C@H]3CC[C@H](N)CC3)ncc([C@H]3CC[C@H](O)CC3)c2n1 [Compound 321]	≥ 7.00	6.00 to 7.00
CN(C)S(=O)(=O)c1cccc(-c2cnc(OC3CCOCC3)c3cnc(NC4(C)CC4)nc23)c1 [Compound 322]	6.00 to 7.00	6.00 to 7.00
CN1C[C@H](Nc2ncc3c(OC4CCOCC4)ncc([C@H]4CC[C@H](O)CC4)c3n2)CC1=O [Compound 323]	5.00 to 6.00	5.00 to 6.00
CN1C[C@@H](Nc2ncc3c(OC4CCOCC4)ncc([C@H]4CC[C@H](O)CC4)c3n2)CC1=O [Compound 324]	5.00 to 6.00	5.00 to 6.00
COC[C@H](C)Nc1ncc2c(OC3CCOCC3)ncc(-c3cccc(C(N)=O)c3)c2n1 [Compound 325]	5.00 to 6.00	5.00 to 6.00
COC[C@H](C)Nc1ncc2c(OC3CCOCC3)ncc([C@H]3CCCNC3)c2n1 [Compound 326]	6.00 to 7.00	≥ 7.00
COC[C@H](C)Nc1ncc2c(OC3CCOCC3)ncc([C@@H]3CCCNC3)c2n1 [Compound 327]	5.00 to 6.00	5.00 to 6.00
COC[C@H](C)Nc1ncc2c(OC3CCOCC3)ncc(-c3cccc(S(N)(=O)=O)c3)c2n1 [Compound 328]	5.00 to 6.00	5.00 to 6.00
COC[C@H](C)Nc1ncc2c(OC3CCOCC3)ncc([C@H]3CC[C@@](O)(C(F)(F)F)CC3)c2n1 [Compound 329]	6.00 to 7.00	5.00 to 6.00
COC[C@H](C)Nc1ncc2c(OC3CCOCC3)ncc([C@H]3CC[C@](O)(C(F)(F)F)CC3)c2n1 [Compound 330]	5.00 to 6.00	5.00 to 6.00
N#Cc1ccc(Nc2ncc3c(OC4CCNCC4)ncc([C@H]4CC[C@H](O)CC4)c3n2)cc1 [Compound 331]	≥ 7.00	≥ 7.00
COC[C@H](C)Nc1ncc2c(OC3CCOCC3)ncc([C@H]3CCCN(C)C3)c2n1 [Compound 332]	5.00 to 6.00	5.00 to 6.00
COC[C@H](C)Nc1ncc2c(OC3CCOCC3)ncc([C@@H]3CCCN(C)C3)c2n1 [Compound 333]	5.00 to 6.00	5.00 to 6.00
COC[C@H](C)Nc1ncc2c(OC3CCOCC3)ncc(-c3cnn([C@H]4CCN(C)C4)c3)c2n1 [Compound 334]	5.00 to 6.00	5.00 to 6.00

Compound	pIC50 (AXL)	pIC50 (FLT3)
COC[C@H](C)Nc1ncc2c(OC3CCOCC3)ncc(-c3ccc(CO)cc3)c2n1 [Compound 335]	5.00 to 6.00	5.00 to 6.00
O[C@H]1CC[C@H](c2cnc(OC3CCOCC3)c3cnc(N[C@H]4CCC(F)(F)C4)nc32)CC1 [Compound 336]	6.00 to 7.00	6.00 to 7.00
COC[C@H](C)Nc1ncc2c(OC3CCOCC3)ncc(-c3ccc(N)nc3)c2n1 [Compound 337]	5.00 to 6.00	5.00 to 6.00
C[C@H](CC(F)(F)F)Nc1ncc2c(OC3CCOCC3)ncc([C@H]3CC[C@H](O)CC3)c2n1 [Compound 338]	5.00 to 6.00	5.00 to 6.00
CCC1(Nc2ncc3c(OC4CCOCC4)ncc([C@H]4CC[C@H](O)CC4)c3n2)CC1 [Compound 339]	6.00 to 7.00	5.00 to 6.00
CNC(=O)N[C@H]1CC[C@H](c2cnc(OC3CCOCC3)c3cnc(N[C@@H](C)COC)nc32)CC1 [Compound 340]	5.00 to 6.00	5.00 to 6.00
CNS(=O)(=O)N1CCC(c2cnc(OC3CCOCC3)c3cnc(N[C@@H](C)COC)nc23)CC1 [Compound 341]	5.00 to 6.00	5.00 to 6.00
COC[C@H](C)Nc1ncc2c(OC3CCOCC3)ncc(-c3ccnnc3)c2n1 [Compound 342]	5.00 to 6.00	5.00 to 6.00
COC[C@H](C)Nc1ncc2c(OC3C[C@H]4CC[C@@H](C3)N4C)ncc([C@H]3CC[C@H](O)CC3)c2n1 (stereo partly shown) [Compound 343]	6.00 to 7.00	5.00 to 6.00
COC[C@H](C)Nc1ncc2c(OC3CCN(c4ncccn4)CC3)ncc([C@H]3CC[C@H](O)CC3)c2n1 [Compound 344]	6.00 to 7.00	5.00 to 6.00
CNC(=O)N1CCC(c2cnc(OC3CCOCC3)c3cnc(N[C@@H](C)COC)nc23)CC1 [Compound 345]	5.00 to 6.00	5.00 to 6.00
COC[C@H](C)Nc1ncc2c(OC3CCOCC3)ncc(C3CCCCN3)c2n1 (stereo partly shown) [Compound 346]	5.00 to 6.00	5.00 to 6.00
COC[C@H](C)Nc1ncc2c(OC3CCOCC3)ncc(-c3cn[nH]c3)c2n1 [Compound 347]	5.00 to 6.00	6.00 to 7.00
COC[C@H](C)Nc1ncc2c(C3CC3)ncc([C@H]3CC[C@H](O)CC3)c2n1 [Compound 349]	6.00 to 7.00	5.00 to 6.00
COC[C@H](C)Nc1ncc2c(OC3CCOCC3)ncc(C3CCCCN3C)c2n1 (stereo partly shown) [Compound 350]	5.00 to 6.00	5.00 to 6.00
COC[C@@H](C)Nc1ncc2c(OC3CC(O)C3)ncc([C@H]3CC[C@H](O)CC3)c2n1 (stereo partly shown) [Compound 351]	5.00 to 6.00	5.00 to 6.00
C[C@@H](CC(F)(F)F)Nc1ncc2c(OC3CCN(C)CC3)ncc([C@H]3CC[C@H](O)CC3)c2n1 [Compound 352]	6.00 to 7.00	5.00 to 6.00
O=C(O)[C@H]1CC[C@@H](Nc2ncc3c(OC4CCOCC4)ncc([C@H]4CC[C@H](O)CC4)c3n2)CC1 [Compound 353]	5.00 to 6.00	5.00 to 6.00
COC[C@H](C)Nc1ncc2c(O[C@@H]3CCOC3)ncc([C@H]3CC[C@H](O)CC3)c2n1 [Compound 354]	5.00 to 6.00	5.00 to 6.00
